Earlier results as cited in patent US9744237B2, “Method and system for effecting changes in pigmented tissue” (priority 2009, dated 2017).

B1: TGFbeta2: Transforming growth factor-beta2, growth inhibit factor of uveal melanocytes (protein, UniProt P61812 303-414, looked up)
Transforming growth factor …: ALDAAYCFRNVQDNCCLRPLYIDFKRDLGWKWIHEPKGYNANFCAGACPYLWSSDTQHSRVLSLYNTINPEASASPCCVSQDLEPLTILYYIGKTPKIEQLSNMIVKSCKCS

How the values were obtained:
tyrosinase = conditions: for RAb: relative activity of tyrosinase inhibitor, RAb and F not defined in the patent
uveal melanocytes = conditions: for growth and melanogenesis of cultured uveal melanocytes: cAMP-deleted medium

Molecule | inhibition mechanism on tyrosinase (tyrosinase) | RAb (tyrosinase) [F] | also measured
O=C(/C=C/c1ccc(O)cc1O)c1ccc(O)cc1O [2,4,2′,4′-Tetrahydroxychalcone] | Competitive | 2.5 | –
O=C(/C=C/c1c(O)cc(O)cc1O)c1ccc(O)cc1O [2,4,6,2′,4′-Pentahydroxychalcone] | Competitive | 12.0 | –
O=C(NCc1ccc(O)cc1O)c1cc(O)cc(O)c1 [3,5,2′,4′-Tetrahydfoxyl derivatives] | – | – | RAa (tyrosinase; N-Benzylbenzamides, RAa and F not defined in the patent): 7.4 F
O=c1c(-c2ccc(O)cc2)coc2cc(O)c(O)cc12 [6-Hydroxydaidzein, 6,7,4′-trihydroxyisoflavone] | Competitive | 6.0 | –
O=c1c(-c2ccc(O)cc2)coc2c(O)c(O)ccc12 [8-Hydroxydaidzein, 7,8,4′-trihydroxyisoflavone] | Suicide substrate | – | –
O=c1c(-c2ccc(O)cc2)coc2c(O)c(O)cc(O)c12 [8-Hydroxygenistein, 5,7,8,4′-tetrahydroxyisoflavone] | Suicide substrate | – | tyrosinase inhibitory activity in words (tyrosinase): the most potent suicide substrate of mushroom tyrosinase until now
COc1cc(O)c2c(=O)cc(-c3ccc(O)cc3O)oc2c1 [Artocarpetin, 5,2′,4′-trihydroxy-7-methoxyflavone] | – | < 0.1 | –
CC1=C(O)C(=O)C(C)O1 (stereo not shown) [DMHF, 2,5-Dimethyl-4-hydroxy-3(2H)-furanone] | – | – | melanogenesis / melanin content / pigmentation (B16 melanoma cells): inhibits a-MSH induced melanogenesis
CNC[C@H](O)c1ccc(O)c(O)c1 [Epinephrine] | – | – | growth and melanogenesis of cultured uveal melanocytes (uveal melanocytes): substantially stimulated growth and melanogenesis
COCCNC(=O)COc1ccc(OCCNC[C@H](O)COc2ccccc2)cc1 [Example D7114] | – | – | growth and melanogenesis of cultured uveal melanocytes (uveal melanocytes): showed no effect
CC1(C)C=Cc2c(ccc3c2OC[C@@H](c2ccc(O)cc2O)C3)O1 [Glabridine] | Non-competitive | 15.2 | –
COc1c(CC=C(C)C)c(O)cc2c1C[C@H](c1ccc(O)cc1O)CO2 [GlyasperinC] | – | 27.7 | –
Oc1ccc(-c2ccc3cc(O)ccc3c2)c(O)c1 [HNB, 4-(6-hydroxy-2-naphtyl)-1.3-bezendiol] | – | – | tyrosinase inhibitory activity in words (tyrosinase): the strongest tyrosinase inhibitor published until now
COc1c(O)ccc(C2=Cc3ccc(O)cc3OC2)c1OC [HagininA, 2′,3′-dimethoxy-7,4′-dihdroxyisoflav-3-ene] | Non-competitive | 10.1 | –
Cc1ccc(C2(C)CC(C)(C)c3ccc(C)cc3O2)c(O)c1 (stereo not shown) [Inulavosin] | – | – | effect on tyrosinase mRNA / transcription (B16 melanoma cells): without affecting either the enzymatic activities or the transcription of tyrosinase; melanogenesis / melanin content / pigmentation (B16 melanoma cells): reduced the melanin content
C=C(C)[C@H](CC=C(C)C)Cc1c(O)cc(OC)c(C(=O)/C=C/c2ccc(O)cc2O)c1O [Kuraridin] | – | 34.1 | –
Br.CCN1C[C@]2(OC(=O)c3ccccc3NC(C)=O)CC[C@H](OC)[C@@]34[C@@H]2C[C@@H]([C@@H]13)[C@@]1(O)C[C@H](OC)[C@H]2C[C@@H]4[C@]1(O)[C@H]2OC [Lappaconitine hydrobromide] | – | – | tyrosinase inhibitory activity in words (tyrosinase): activity similar to that of kojic acid
C=CC(C)(C)c1cc(/C=C/C(=O)c2ccc(O)cc2)c(OC)cc1O [LicochalconeA] | Competitive | 5.4 | –

Molecule | inhibition mechanism on tyrosinase (tyrosinase) | RAb (tyrosinase) [F] | also measured
COc1ccc(OC)c(C(O)C(C)N)c1 (stereo not shown) [Methoxamine] | – | – | growth and melanogenesis of cultured uveal melanocytes (uveal melanocytes): showed no effect
C[C@@H]1O[C@H](C[N+](C)(C)C)C[C@H]1O [Muscarine] | – | – | growth and melanogenesis of uveal melanocytes (uveal melanocytes; complete medium): inhibited the growth and melanogenesis
O=c1cc(-c2ccc(O)cc2O)oc2cc(O)cc(O)c12 [Norartocarpetin] | Competitive | 10.4 | –
O=C1CC(c2ccc(O)cc2O)Oc2cc(O)cc(O)c21 (stereo not shown) [Streppogenin, 5,7,2′,4′-tetrahydroxy-flavavone] | Competitive | 13.6 | –
CC(C)=CCc1c(O)ccc(/C=C/C(=O)c2ccc(O)cc2O)c1O [TMBC, 2,4,2′,4′-tetrahydroxy-3-(3-methy1-2-buteny1)-chalcone] | Competitive | 26.1 | –
Clc1cccc(Cl)c1N=C1NCCN1 [clonidine] | – | – | growth and melanogenesis of cultured uveal melanocytes (uveal melanocytes): showed no effect
OC[C@H]1NC[C@@H](O)[C@@H](O)[C@@H]1O [deoxymannojirimycin] | – | – | glycosylation, transportation of tyrosinase to the melanosome and melanin synthesis (HM3K0 melanoma cells): showed inhibition of glycosylation, transportation of tyrosinase to the melanosome and melanin synthesis
N[C@H]1C(O)O[C@H](CO)[C@@H](O)[C@@H]1O (stereo partly shown) [glucosamine] | – | – | melanogenesis / melanin content / pigmentation (B16 melanoma cells): decreased pigmentation
CC(C)NCC(O)c1ccc(O)c(O)c1 (stereo not shown) [isoproterenol] | – | – | growth and melanogenesis of cultured uveal melanocytes (uveal melanocytes): substantially stimulated growth and melanogenesis
CC(C)NCC(O)c1cc(O)cc(O)c1 (stereo not shown) [metaproterenol] | – | – | growth and melanogenesis of cultured uveal melanocytes (uveal melanocytes): substantially stimulated growth and melanogenesis
OCc1ccc(O)cc1 [p-hydroxybenzyl alcohol] | irreversibly inhibited the enzyme | – | –
CC(C)NC[C@H](O)COc1ccc(O)cc1 [prenalterol] | – | – | growth and melanogenesis of cultured uveal melanocytes (uveal melanocytes): showed no effect
CC(C)(C)NCC(O)c1ccc(O)c(CO)c1 (stereo not shown) [salbutamol] | – | – | growth and melanogenesis of cultured uveal melanocytes (uveal melanocytes): substantially stimulated growth and melanogenesis
Hen egg white lysozyme (HEWL): Hen egg white lysozyme | reversibly and irreversibly mixed inhibition mechanism | – | –
Kuraridinol | Non-competetive | – | –
tunicamycin | – | – | melanogenesis / melanin content / pigmentation (B16 melanoma cells): decreased pigmentation
B1 | – | – | amount of active TGFbeta2 in aqueous humor sufficient to inhibit the growth of uveal melanocytes (uveal melanocytes): 0.2-0.4 ng m1-1
